Reference: paper PMC6112376, “Comprehensive Analyses and Prioritization of Tox21 10K Chemicals Affecting Mitochondrial Function by in-Depth Mechanistic Studies” (Environmental Health Perspectives, 2018)
Like-named read-outs stand apart in the source and are kept apart here.

Tests used:
HepG2 cells [1] = experiment: Intracellular ATP content (cell viability) assay; assay type: cell-based, human; conditions: for IC50: 40 h treatment, mean±SD of three experiments
HepG2 cells [2] = experiment: ROS-Glo hydrogen peroxide (ROS) assay; assay type: cell-based, human; conditions: 2 h treatment; mean±SD of three experiments
[3] = tested on: mitochondrial respiratory chain complex I; assay type: biochemical, rat; conditions: at 100μM
rat primary hepatocytes = experiment: MMP assay in rat primary hepatocytes
[4] = tested on: mitochondrial respiratory chain complex III; assay type: biochemical, rat; conditions: at 100μM
HepG2 cells [5] = conditions: cited from earlier work
[6] = tested on: mitochondrial respiratory chain complex IV; assay type: biochemical, rat
hNSC = experiment: MMP assay in human neural stem cells (hNSC); assay type: cell-based; conditions: mean±SD of three experiments
HepG2 cells [7] = tested on: HepG2 cells
[8] = tested on: Nrf2/ARE (ARE-bla HepG2 cells); experiment: ARE β-lactamase reporter gene assay; assay type: cell-based, human
[9] = tested on: Caenorhabditis elegans (Bristol N2); experiment: C. elegans larval development and growth assay
[10] = tested on: isolated rat liver mitochondria; experiment: Oxygen consumption, Clark-type oxygen electrode; assay type: biochemical; conditions: for I-ADP, % of control (O2 consumption rate): glutamate/malate driven state 3 respiration; for I-ADP, % of control (O2 consumption rate) / I-sub, % of control (O2 consumption rate) / II-ADP, % of control (O2 consumption rate) / II-sub, % of control (O2 consumption rate): isolated rat liver mitochondria; for I-sub, % of control (O2 consumption rate): glutamate/malate driven state 4 respiration; for II-ADP, % of control (O2 consumption rate): succinate-driven state 3 respiration; for II-sub, % of control (O2 consumption rate): succinate-driven state 4 respiration
[11] = tested on: mitochondrial respiratory chain complex V; assay type: biochemical, rat
[12] = tested on: Caenorhabditis elegans strain PE255; experiment: In vivo C. elegans ATP status assay
[13] = biological target: T1, mitochondrial respiratory chain complex II (Rattus norvegicus, UniProt P21913+Q641Z9+Q6PCT8+Q920L2); experiment: Respiratory chain complex II activity; assay type: biochemical; conditions: at 100μM; mean±SD of three experiments
T1 construct: Submitochondrial particles were prepared by subjecting the intact rat mitochondria, isolated as described above, to three successive freeze–thaw cycles; from tissue; host or cells: rat liver mitochondria (submitochondrial particles)

[14] = tested on: HeLa cells expressing YFP-Parkin; experiment: Parkin translocation assay; assay type: cell-based, human; conditions: HeLa cells stably expressing YFP-Parkin; treated for 2 h
[15] = tested on: p53 (p53-bla HCT-116 cells); experiment: p53 β-lactamase reporter gene assay; assay type: cell-based, human; conditions: 16 h incubation; mean±SD of three experiments
HepG2 cells [16] = experiment: Oxygen consumption, Seahorse XF24 analyzer; assay type: cell-based, human; conditions: Seahorse XF24; HepG2 cells; 25 mM glucose; 1, 4, 16, and 64μM

T1 sequence (Q920L2 35-656): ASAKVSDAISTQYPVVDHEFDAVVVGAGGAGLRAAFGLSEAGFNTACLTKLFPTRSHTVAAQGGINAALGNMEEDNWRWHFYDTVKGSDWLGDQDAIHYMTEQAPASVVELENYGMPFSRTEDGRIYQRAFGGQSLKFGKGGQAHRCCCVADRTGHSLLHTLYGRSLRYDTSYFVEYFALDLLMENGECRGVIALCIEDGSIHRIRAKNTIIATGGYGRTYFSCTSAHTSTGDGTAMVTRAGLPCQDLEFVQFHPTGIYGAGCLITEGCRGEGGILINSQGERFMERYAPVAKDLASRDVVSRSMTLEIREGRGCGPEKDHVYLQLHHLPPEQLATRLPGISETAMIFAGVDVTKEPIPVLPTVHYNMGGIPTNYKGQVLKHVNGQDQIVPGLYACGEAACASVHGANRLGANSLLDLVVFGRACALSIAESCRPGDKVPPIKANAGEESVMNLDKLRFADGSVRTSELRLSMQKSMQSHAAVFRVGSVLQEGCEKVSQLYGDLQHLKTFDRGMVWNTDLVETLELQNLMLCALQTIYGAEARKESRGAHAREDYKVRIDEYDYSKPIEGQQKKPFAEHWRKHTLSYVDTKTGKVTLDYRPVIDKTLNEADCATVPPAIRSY
T1 sequence (P21913 31-282): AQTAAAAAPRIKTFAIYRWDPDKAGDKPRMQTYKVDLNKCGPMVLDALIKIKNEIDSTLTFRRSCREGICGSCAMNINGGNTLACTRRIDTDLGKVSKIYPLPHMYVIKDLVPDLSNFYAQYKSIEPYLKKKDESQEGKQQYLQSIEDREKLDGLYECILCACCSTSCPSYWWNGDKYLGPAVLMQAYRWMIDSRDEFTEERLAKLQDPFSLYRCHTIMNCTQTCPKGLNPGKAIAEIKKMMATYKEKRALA
T1 sequence (Q641Z9 1-169): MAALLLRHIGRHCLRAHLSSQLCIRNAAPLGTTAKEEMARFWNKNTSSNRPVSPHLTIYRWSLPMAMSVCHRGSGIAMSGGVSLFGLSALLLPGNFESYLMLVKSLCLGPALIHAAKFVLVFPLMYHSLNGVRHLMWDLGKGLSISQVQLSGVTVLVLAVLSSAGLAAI
T1 sequence (Q6PCT8 57-159): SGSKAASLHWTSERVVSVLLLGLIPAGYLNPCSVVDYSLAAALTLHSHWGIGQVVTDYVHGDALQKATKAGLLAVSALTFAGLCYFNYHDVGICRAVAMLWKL

For `Cl.N=C1C=CC(=C(c2ccc(N)cc2)c2ccc(N)cc2)C=C1` [C.I. Basic red 9 monohydrochloride], the IC50 (HepG2 cells [1]; 5 mM glucose, read-out: ATP (HepG2, glucose) IC50) was 9.72 ± 5.01 µM, the “ATP (HepG2, glucose) (efficacy)” value (HepG2 cells [1]; 5 mM glucose, % of positive control) was −101±8.17% and the IC50 (HepG2 cells [1]; 10 mM galactose, read-out: ATP (HepG2, galactose) IC50) was 6.25 ± 2.01 µM. The “ATP (HepG2, galactose) (efficacy)” value (HepG2 cells [1]; 10 mM galactose, % of positive control) was −98.4±12.9%, the “ROS (HepG2) EC50” value (HepG2 cells [2]) was “Inactive” and the “Complex I % inhibition” value [3] was 14.1±2.98 at 100μM %. For the same molecule, the “Rat hepatocytes (efficacy) (MMP)” value (rat primary hepatocytes; % of positive control, mean±SD of three experiments) was −90.3±2.77%, the “MMP assays efficacy (%) Rat Hepatocytes” value (rat primary hepatocytes; rat hepatocytes, mean ± SD of three experiments) was -96±23% and the IC50 (rat primary hepatocytes; read-out: MMP assays IC50 (µM) Rat Hepatocytes, rat hepatocytes, mean ± SD of three experiments) was 4.11 ± 4.24 µM. The IC50 (rat primary hepatocytes; read-out: Rat hepatocytes IC50 (MMP), 1 h treatment, fresh re-sourced stocks, mean±SD of three experiments) was 6.3 ± 0.43 µM, the “Complex III % inhibition” value [4] was 21.6±6.41 at 100μM % and the “MMP assays efficacy (%) qHTS-HepG2” value (HepG2 cells [5]) was -95±11%. For the same molecule, the IC50 (HepG2 cells [5]; read-out: MMP assays IC50 (µM) qHTS-HepG2) was 0.08 ± 0.02 µM, the “Complex IV % inhibition (activity call)” value [6] was “Inactive” and the IC50 (hNSC; 1 h treatment, fresh re-sourced stocks, read-out: hNSC IC50 (MMP)) was 2.55 ± 0.58 µM. For the same molecule, the “hNSC (efficacy) (MMP)” value (hNSC; % of positive control) was −70.3±7.17%, the “HepG2 (efficacy) Glucose (MMP)” value (HepG2 cells [7]; 5 mM glucose, % of positive control, mean±SD of three experiments) was −97.1±6.48% and the “HepG2 (efficacy) Galactose (MMP)” value (HepG2 cells [7]; 10 mM galactose, % of positive control, mean±SD of three experiments) was −89.4±4.30%. The “MMP assays efficacy (%) HepG2” value (HepG2 cells [7]; HepG2 cells, single number from one experiment) was -94%, the IC50 (HepG2 cells [7]; read-out: HepG2 IC50 Galactose (MMP), 10 mM galactose, no glucose, 1 h treatment, mean±SD of three experiments) was 2.53 ± 0.46 µM and the IC50 (HepG2 cells [7]; read-out: HepG2 IC50 Glucose (MMP), 5 mM glucose, 1 h treatment, fresh re-sourced stocks, mean±SD of three experiments) was 1.66 ± 0.28 µM. The IC50 (HepG2 cells [7]; read-out: MMP assays IC50 (µM) HepG2, HepG2 cells, single number from one experiment) was 0.56 µM, the EC50 ([8]; 16 h incubation, mean±SD of three experiments, read-out: ARE (HepG2) EC50) was 11.7 ± 7.37 µM and the “ARE (HepG2) (efficacy)” value ([8]; % of positive control) was 107±42.3%. For the same molecule, the “EXT: mean difference in nematode size relative to plate controls” value ([9]; 0.5 µM) was 0.03177, the “EXT: mean difference in nematode size relative to plate controls” value ([9]; 1 µM) was -0.03542 and the “EXT: mean difference in nematode size relative to plate controls” value ([9]; 5 µM) was 0.06311. The “EXT: mean difference in nematode size relative to plate controls” value ([9]; 10 µM) was 0.04374, the “EXT: mean difference in nematode size relative to plate controls” value ([9]; 25 µM) was 0.1555 and the “EXT: mean difference in nematode size relative to plate controls” value ([9]; 50 µM) was 0.3061. The “EXT: mean difference in nematode size relative to plate controls” value ([9]; 75 µM) was 1.032, the “EXT: mean difference in nematode size relative to plate controls” value ([9]; 100 µM) was 1.117 and the “LEC EXT: lowest effect concentration for extinction, a measure of nematode size” value ([9]; C. elegans larval growth, JT trend test, Bonferoni correction p<0.05) was 50 µM. The “I-ADP, % of control (O2 consumption rate)” value ([10]; 0.8 µM) was 94 (41.0) % of control, the “I-sub, % of control (O2 consumption rate)” value ([10]; 0.8 µM) was 100 (13.1) % of control and the “II-ADP, % of control (O2 consumption rate)” value (“II-ADP, % of control” for short) ([10]; 0.8 µM) was 97 (65.8) % of control. For the same molecule, the “II-sub, % of control (O2 consumption rate)” value (from here on “II-sub, % of control”) ([10]; 0.8 µM) was 96 (20.1) % of control, the “I-ADP, % of control (O2 consumption rate)” value ([10]; 4 µM) was 82 (35.8) % of control and the “I-sub, % of control (O2 consumption rate)” value ([10]; 4 µM) was 92 (12.1) % of control. The “II-ADP, % of control” value ([10]; 4 µM) was 93 (63.1) % of control, the “II-sub, % of control” value ([10]; 4 µM) was 101 (21.1) % of control and the “I-ADP, % of control (O2 consumption rate)” value ([10]; 20 µM) was 64 (27.9) % of control. For the same molecule, the “I-sub, % of control (O2 consumption rate)” value ([10]; 20 µM) was 106 (13.9) % of control, the “II-ADP, % of control” value ([10]; 20 µM) was 66 (44.4) % of control and the “II-sub, % of control” value ([10]; 20 µM) was 110 (22.9) % of control. The “I-ADP, % of control (O2 consumption rate)” value ([10]; 100 µM) was 17 (9.1) % of control, the “I-sub, % of control (O2 consumption rate)” value ([10]; 100 µM) was 94 (12.7) % of control and the “II-ADP, % of control” value ([10]; 100 µM) was 31 (21.0) % of control. The “II-sub, % of control” value ([10]; 100 µM) was 96 (20.8) % of control, the “effect on mitochondrial respiration (in words)” value ([10]; Clark-type oxygen electrode, concentrations up to 100μM) was “moderate inhibitory effect on state 3 respiration driven by both glutamate/malate and succinate, but not on state 4 respiration” and the “Potential Mechanism” value ([10]; mitochondrial respiration in isolated rat liver mitochondria, Clark type oxygen electrode, over tested concentrations) was “Inhibitor”. The “Complex V % inhibition (activity call)” value [11] was “Inactive”, the “LUM: mean difference in luminescence (ATP content) relative to plate controls” value ([12]; 0.5 µM) was 0.1703 and the “LUM: mean difference in luminescence (ATP content) relative to plate controls” value ([12]; 1 µM) was 0.2203. For the same molecule, the “LUM: mean difference in luminescence (ATP content) relative to plate controls” value ([12]; 5 µM) was 0.7285, the “LUM: mean difference in luminescence (ATP content) relative to plate controls” value ([12]; 10 µM) was 0.8296 and the “LUM: mean difference in luminescence (ATP content) relative to plate controls” value ([12]; 25 µM) was 1.533. The “LUM: mean difference in luminescence (ATP content) relative to plate controls” value ([12]; 50 µM) was 2.0258, the “LUM: mean difference in luminescence (ATP content) relative to plate controls” value ([12]; 75 µM) was 2.358 and the “LUM: mean difference in luminescence (ATP content) relative to plate controls” value ([12]; 100 µM) was 2.677. The “LEC (lowest effect concentration), ATP assay” value ([12]; 24 h exposure) was ≤ 10 µM, the “LEC LUM: lowest effect concentration for luminescence, a measure of nematode ATP content” value ([12]; C. elegans ATP, JT trend test, Bonferoni correction p<0.05) was 5 µM and the “Complex II % inhibition” value [13] was 12.2±3.48 at 100μM %. For the same molecule, the Parkin recruitment [14] was “Inactive”, the “p53 (HCT-116) EC50” value [15] was “Inactive” and the “Activity in oxygen consumption” value (HepG2 cells [16]) was “Inhibitor”.
